{"source": "patent US12215354B2", "about": "“Differentiation of human embryonic stem cells into single hormonal insulin positive cells” (Janssen Biotech, Inc., priority 2011, dated 2025)", "tested_on": "human embryonic stem cell line H1", "experiment": "Real-time PCR gene expression, BMP inhibition and PKC activation at S3 (Example 2)", "format": "cell-based", "details": "50 nM compared with 200 nM at S3", "method": "Cells of the human embryonic stem cell line H1 were harvested at various passages (passage 40 to passage 52) and were seeded as single cells at a density of 100,000 cells/cm^2 on MATRIGEL™ (1:30 dilution) coated dishes in mTesr™1 media supplemented with 10 μM of Y27632. Forty eight hours post-seeding, cultures were differentiated into cells of the pancreatic endocrine lineage as follows: • a. Stage 1 (Definitive Endoderm (DE)—3 days): Prior to start of DE, the cultures were washed and incubated with incomplete PBS (no Mg or Ca) for 30 seconds followed by addition of the stage 1 media. Human embryonic stem cells cultured as single cells on MATRIGEL™-coated dishes were treated with MCDB-131 medium supplemented with 0.1% fatty acid-free BSA, 0.0012 g/ml sodium bicarbonate, 1× GLUTAMAX™, and 2.5 mM D-Glucose, 100 ng/ml GDF8, and […] MCX compound (GSK3B inhibitor) for one day. Cells were then treated with MCDB-131 medium supplemented with 0.1% fatty acid-free BSA, 0.0012 g/ml sodium bicarbonate, 1× GLUTAMAX™, 2.5 mM glucose, and 100 ng/ml GDF8 for days 2-3. • b. […]\nmRNA was collected at S2-S4 for all the conditions listed above and analyzed using real-time PCR. […]"}
{"smiles": "c1ccc2c(-c3cnn4cc(-c5ccc(N6CCNCC6)cc5)cnc34)ccnc2c1", "note": "[LDN-193189]", "values": [{"measurement": "induction of endocrine markers (chromogranin and NGN3)", "value": "as effective as 200 nM LDN-193189"}]}
